The subject of one data set is AML cell lines. Nature of the data set: Preliminary combination of Cpd 1 with AML drugs. The format is cell-based, human. The following applies: in combination with DNR, cytarabine and etoposide, data not shown.
The subject of data set [1] is MOLM-13. Set-up: method as in PMID 34124675. The following applies: ref [6]; cited from earlier work.
The subject of a further data set is AML patient blasts. Put plainly: Cell death of patient-derived AML blasts, Annexin V/propidium iodide flow cytometry, 24 h. The format is cell-based, human. The note with it: compared with Cpd 3, 6, 9. The source says:
Blasts from 61 non-selected patients were used in this study. Supplementary Table 1 presents the patient information, classification, and genetic aberration of the blasts. Peripheral blood mononuclear cells (PBMC) from healthy volunteers were obtained from freshly drawn peripheral blood from the Department of Immunology and Transfusion Medicine, Haukeland University Hospital, Bergen, Norway. AML blasts and PBMCs were isolated by density gradient separation of peripheral blood. The patient samples contained at least 95 % leukemic blasts after isolation. Bone marrow (BM) aspirate from a healthy donor was kindly provided by Professor BT Gjertsen, Dept. Clinical Science, University of Bergen (REK Vest 2012/2247). The patient blasts were cultured in StemSpan medium supplemented with SCF, Flt-3 ligand, and G-CSF, each at a final concentration of 20 ng/mL [22, 23], treated with phenazine 5,10-dioxides or daunorubicin (DNR) for 24 h before cell death was assessed by flow-cytometric analyses as described previously. Viable cells were defined as Annexin V/propidium iodide double negative cells.

Data set [2] deals with MOLM-13. Put plainly: WST-1 metabolic activity and Bliss synergy with VTX, MOLM-13. The format is cell-based, human. The note with it: for Mean Bliss interaction index (synergy score): Cpd 1 + VTX, all tested combinations. The procedure:
(§1) To study the combination effect of phenazine 5,10-dioxides and VTX in AML cell lines, the cells were seeded in 96-well plates at 35,000 cells per well for 24-hour experiments or 20,000 cells per well for 48-hour experiments. Phenazine 5,10-dioxides and VTX, alone or in combination, were added in desired concentrations and cell plates incubated for 24 and 48 h. Thereafter, WST-1 was added to each well according to the manufacturer’s instructions and incubated for two hours. Absorbance was measured at 450 nm with 620 nm reference wavelength in a Wallac EnVision® 2130 multilabel plate reader, and this value was used to calculate relative metabolic activity compared to untreated cells. The cells were next fixed in 2 % formaldehyde with 0.01 mg/ml Hoechst 33,342 dye dissolved in PBS. Nuclear morphology was studied using a Nikon Diaphot 300 microscope to confirm that metabolic activity correlated with the presence of apoptotic nuclei (Supplementary Figure 1).
(§2) To calculate drug interaction, cell metabolic activity results were plotted into the interaction calculation software SynergyFinder+ [31], and Bliss independence score was used to calculate synergy.

The subject of data set [3] is zebrafish larvae. Nature of the data set: Toxicity in zebrafish larvae (viability, MTD, morphology). The note with it: for Melanocyte abnormalities: wild-type AB-strain zebrafish larvae. The format is in vivo. How it is done:
Phenazine 5,10-dioxides were dissolved in DMSO to give final concentrations between 5 and 20 mM and administered to the zebrafish larvae by diluting the stock solutions in the embryo medium. All compounds were tested up to a maximal concentration of 100 µM. […]
(§3) Zebrafish larvae heart rate was analysed as described by Førde et al.. To examine zebrafish larvae for morphological abnormalities, they were imaged using a Nikon Diaphot 300 inverted microscope fitted with a Nikon DS-Fi3 microscope camera and DS-L4 camera control unit.

For data set [4], the system named is MOLM-13. Put plainly: Cytotoxicity towards MOLM-13 cells (EC50). The format is cell-based, human. The note with it: no reference mark in Table 3. The procedure: Table 3 Toxicity of phenazine 5,10-dioxides in zebrafish larvae. Maximum tolerated doses and observed morphological alterations in zebrafish larvae caused by phenazine 5,10-dioxides dissolved in embryo medium for 48 h. Cpd: compound. MTD: maximum tolerated dose. a: EC50 values from, –: not observed. | column: MOLM-13 EC50 (µM)

For data set [5], the system named is xenograft MOLM-13 cells in zebrafish larvae. Nature of the data set: Tumour burden of xenograft MOLM-13 cells in zebrafish larvae. The format is in vivo. The following applies: VTX 4 nL 50 µM intravenous injection; 24 h; p < 0.001. How it is done:
Prior to transplantation into zebrafish larvae, MOLM-13 cells were stained with the fluorescent marker CellTracker™ Deep Red. The cell suspension was centrifuged at 300 relative centrifugal force (RCF) for 5 min, and the medium removed. Thereafter, the cells were resuspended in serum-free RPMI-1640 medium containing 1.5 µM CellTracker™ Deep Red and incubated for 30 min at 37 °C. Excess dye was removed by centrifugation for five minutes at 300 RCF, removal of the medium and the cells were resuspended in fresh RPMI-medium to a final concentration of 10 million cells/mL. Intravenous injection of MOLM-13 cells into zebrafish larvae was performed as described in Førde et al.. The zebrafish larvae xenografts were incubated at 31.5 °C.
For quantification of tumour burden in zebrafish larvae a Nikon Ti-E inverted microscope fitted with an Andor Dragonfly 505 spinning disk confocal unit and iXon 888 Life EMCCD camera setup was used. […] The zebrafish larvae were scored based on the number of cells successfully injected and divided into treatment or control groups. […]
The Fiji macro described in [30] was used to determine MOLM-13 cancer cell burden in zebrafish larvae. […] After defining the boundary of the larva and segmentation from the background, the cells are segmented so that individual cells can be quantified (both size and number). […]

In the next data set the test system is OCI-AML3. Nature of the data set: WST-1 metabolic activity and Bliss synergy with VTX, OCI-AML3. The format is cell-based, human. The following applies: VTX alone; 24 h. How it is done:
as §1, §2

Details of data set [6]: method as in PMID 38778732. The note with it: patients receiving 400 mg VTX as a single dosage; ref [43]; cited from earlier work.
Data set [7] deals with zebrafish larvae. Nature of the data set: Zebrafish larvae heart rate. The format is in vivo. The following applies: intravenously injected, 4 nL injection, 100 µM; 24 and 48 h. The procedure: as §3
The conditions of data set [8]: ref [29]; cited from earlier work.
The next data set has as its system AML patients. Set-up: method as in PMID 32786187. The note with it: ref [14]; cited from earlier work.
The mark [9] stands for this setting: dissolved in embryo medium for 48 h.
Setting [10] is: dissolved in embryo medium for 48 h, concentration from which observed.

Where two headings read alike, the source gives them in different places.

For the molecule `[O-][n+]1c2cccc(O)c2[n+]([O-])c2cccc(O)c21` [Cpd 1, 1,6-dihydroxyphenazine 5,10-dioxide], the Drug interaction result in the data set with AML cell lines is reported as “additive effects”. The half-maximal effective concentration (EC50) in the data set with MOLM-13 [1] was 2 ± 0.1 µM. In the data set with AML patient blasts, the “Potency towards the patient blasts” value is “lowest potency”. In addition, the “Mean Bliss interaction index (synergy score)” value came out at 15.56 with MOLM-13 [2] (24 h) and 10.90 with MOLM-13 [2] (48 h). Moreover, the “Lethality to zebrafish larvae” value in the data set on zebrafish larvae [3] (100 µM (highest concentration tested), 48 h) is reported as “not lethal”. Moreover, the “Viability of zebrafish larvae (Fig. 2A annotation)” value in the data set with zebrafish larvae [3] (48 h of exposure, up to 100 µM) is recorded as “Non-toxic”. Moreover, the “MTD (maximum tolerated dose)” value with zebrafish larvae [3] (setting [9]) is greater than 100 µM. Further, the Melanocyte abnormalities entry in the data set with zebrafish larvae [3] is given as “not observed”.

`COc1cccc2c1[n+]([O-])c1cccc(O)c1[n+]2[O-]` [Cpd 2, Myxin]: the 50% effective concentration (EC50) in the data set on MOLM-13 [1] is 1.4 ± 0.3 µM. For the same molecule, in the data set on zebrafish larvae [3] (48 h exposure), the “Only concentration that did not cause lethality” value was 5 µM. Further, the “MTD (maximum tolerated dose)” value with zebrafish larvae [3] (setting [9]) was found to be 5 µM. Also, the Pigmentation alterations result in the data set with zebrafish larvae [3] (setting [10]) is reported as “From 10 µM”. The “Concentration killing zebrafish larvae after six hours” value in the data set with zebrafish larvae [3] (in embryo medium, data not shown) amounted to 30000 nM. Also, the Melanocyte abnormalities entry in the data set with zebrafish larvae [3] is on record as “caused melanocyte abnormalities”.

Regarding `COc1cccc2c1[n+]([O-])c1ccccc1[n+]2[O-]` [Cpd 10], a half-maximal response in the data set on MOLM-13 [4] (EC50) required 1.4 ± 0.1 µM. In addition, the “MTD (maximum tolerated dose)” value with zebrafish larvae [3] (setting [9]) was less than 10 µM. Besides, in the data set with zebrafish larvae [3] (setting [10]), the Muscle fibre alterations entry is “From 10 µM” and the Pigmentation alterations result was “From 10 µM”. In the data set on zebrafish larvae [3], the Melanocyte abnormalities entry was “caused melanocyte abnormalities”.

With `CC1(C)CCC(CN2CCN(c3ccc(C(=O)NS(=O)(=O)c4ccc(NCC5CCOCC5)c([N+](=O)[O-])c4)c(Oc4cnc5[nH]ccc5c4)c3)CC2)=C(c2ccc(Cl)cc2)C1` [VTX, venetoclax], in data set [5], the “Cancer cell burden relative to control” value is on record as “reduced cancer cell burden”. For the same molecule, in the data set with OCI-AML3, the “Concentration until which no reduction in metabolic activity” value stood at 6 µM and the “Sensitivity of OCI-AML3 cells” value is listed as “high resistance”. In [6], the maximum concentration (Cmax) is roughly 2500 nM. For the same molecule, the “Heartrate of zebrafish larvae relative to control” value in the data set on zebrafish larvae [7] is “No significant differences”. The Relative metabolic activity with MOLM-13 [2] (6 nM VTX alone, 48 h) came to 59%. In [8], the Permeability result is given as “low permeability”.

With `Nc1ncn([C@@H]2O[C@H](CO)[C@@H](O)[C@H]2O)c(=O)n1` [azacitidine], the Median overall survival in the data set with AML patients is on record as 9.6 months.
